Data on three compounds can be found in paper PMC4527839, “Synergistic Activity of the Plant Defensin HsAFP1 and Caspofungin against Candida albicans Biofilms and Planktonic Cultures” (PLoS ONE, 2015).

Where a name gives a salt, the structure may show the parent alone. Read-outs that look alike come from different tables or passages of the source.

The subject of assay [1] is C. albicans SC5314 biofilms. Kind of assay: Checkerboard assay, biofilm formation inhibition. The assay is classed as cell-based. The settings on record: Candida albicans, CTB assay, mean ± SEM. As to the method:
The Biofilm Inhibitory Concentration 50 value (BIC50; the minimum concentration required to reduce biofilm formation by 50% as compared to control treatment) of rHsAFP1 was determined using the following antibiofilm assay: a C. albicans SC5314 overnight culture, grown in YPD, was diluted to an optical density (600 nm) of 0.1 in RPMI 1640 medium and 100 μL of this suspension was added to the wells of a round-bottomed microtitre plate (TPP, Tradingen, Switzerland). After 1 h of adhesion at 37°C, the medium was aspirated and the biofilms were washed with 100 μL phosphate-buffered saline (PBS) to remove non-adherent cells. Fresh RPMI 1640 medium, followed by an rHsAFP1 concentration series was added to the biofilms. The DMSO concentration was similar to that in the checkerboard assays, i.e. 0.5%. Biofilms were allowed to grow for 24 h at 37°C and were subsequently washed with PBS and quantified with CellTiter-Blue (CTB; Promega, WI, USA)) by adding 100 μL of CTB diluted 1/10 in PBS to each well. After 1 h of incubation in the dark at 37°C, the fluorescence was measured with a fluorescence spectrometer (λEx/λEm: 535/590 nm). The fluorescence values of the samples were corrected by subtracting the average fluorescence value of the CTB of uninoculated wells (blank). The percentage of surviving biofilm cells was calculated relative to the control treatment (0.5% DMSO).
C. albicans biofilms or C. albicans planktonic cultures were grown as described above. A combination of rHsAFP1 and antimycotic (caspofungin or amphotericin B), two-fold diluted across the columns and rows of a 96-well plate, respectively, was added to the planktonic culture or to the biofilms. […] Synergy was determined by calculating the Fractional Inhibitory Concentration Index (FICI), in which the actual concentration of compound A (i.e. rHsAFP1) in the checkerboard experiment was used, as indicated in Tables 1–3 and 4.
(§1) Data were analysed with GraphPad Prism (GraphPad Software, Inc., CA, USA). […]

In assay [2] the test system is C. albicans SC5314 biofilms (24 hours-old). The assay is described as follows: Checkerboard assay, biofilm eradication. The assay is classed as cell-based. The settings on record: Candida albicans, antimycotic alone, [rHsAFP1] 0 μM, CTB assay, mean ± SEM, n ≥ 3, read-out: BEC50 CAS or AMB. As for the experimental part:
The Biofilm Eradicating Concentration 50 value (BEC50; the minimum concentration required to reduce the viability of the cells in a pre-grown biofilm by 50% as compared to control treatment) of rHsAFP1 was determined using the BEC50 determination assay as described by De Cremer and co-workers. Briefly, a C. albicans SC5314 overnight culture, grown in YPD, was diluted to an optical density (600 nm) of 0.1 in RPMI 1640 medium and 100 μL of this suspension was added to the wells of a round-bottomed microtitre plate (TPP, Tradingen, Switzerland). After 1 h of adhesion, the biofilms were washed with 100 μL PBS to remove non-adherent cells, followed by addition of 100 μL RPMI 1640 medium. The biofilms were allowed to grow for 24 h at 37°C. Next, an rHsAFP1 concentration series in RPMI was added to the biofilms. […] The biofilms were incubated for another 24 h at 37°C, after which they were washed and quantified with CTB as described above.
(§2) C. albicans biofilms or C. albicans planktonic cultures were grown as described above. […] Synergy was determined by calculating the Fractional Inhibitory Concentration Index (FICI), in which the actual concentration of compound A (i.e. rHsAFP1) in the checkerboard experiment was used, as indicated in Tables 1–3 and 4.
as §1

The subject of assay [3] is C. albicans SC5314 planktonic cultures. The assay is described as follows: Checkerboard assay, planktonic cultures. Type of assay: cell-based. The settings on record: Candida albicans, antimycotic alone, [rHsAFP1] 0 μM, OD at 490 nm, mean ± SEM, n ≥ 3, read-out: MIC50 CAS or AMB.
Text: To test whether rHsAFP1 is as potent as HsAFP1 purified from the seeds of coral bells, we analysed the antifungal activity of both peptides against F. culmorum, following the standard CLSI protocol M28-A2 [50], with minor modifications as previously described by Osborn and colleagues: an inoculum of approximately 10^4 spores/mL of F. culmorum was suspended in half strength PDB and added to a two-fold dilution series of rHsAFP1 in water. Seed-derived HsAFP1 was purified according to the protocol as previously described by Osborn and colleagues. […] The antifungal activity of rHsAFP1 against C. albicans was subsequently analysed according to the standard CLSI protocol M27-A3 [51] with minor modifications: an inoculum of approximately 10^6 cells/mL was suspended in RPMI-1640 medium and added to a two-fold dilution series of rHsAFP1 in water. The DMSO concentration was similar to that in the biofilm assays, i.e. 0.5% DMSO.
as §2, §1

Assay [4] concerns C. albicans and C. glabrata biofilms. Also on record: method as in PMID 24284780. The settings on record: combination with caspofungin; cited from earlier work.
Where [5] appears, read: antimycotic alone, [rHsAFP1] 0 μM, n ≥ 3, read-out: BIC50 CAS or AMB.

As for `C[C@@H]1[C@H](O)[C@@H](C)/C=C/C=C/C=C/C=C/C=C/C=C/C=C/[C@H](O[C@@H]2O[C@H](C)[C@@H](O)[C@H](N)[C@@H]2O)C[C@@H]2O[C@](O)(C[C@@H](O)C[C@@H](O)[C@H](O)CC[C@@H](O)C[C@@H](O)CC(=O)O[C@H]1C)C[C@H](O)[C@H]2C(=O)O` [AMB alone, amphotericin B], the IC50 in assay [1] (setting [5]) was 1230 ± 150 nM; in assay [2], 1670 ± 300 nM. Also, the MIC50 in assay [3] was 0.44 ± 0.06 µM.

`CC[C@H](C)C[C@H](C)CCCCCCCCC(=O)N[C@H]1C[C@@H](O)[C@@H](NCCN)NC(=O)[C@@H]2[C@@H](O)CCN2C(=O)[C@H]([C@H](O)CCN)NC(=O)[C@H]([C@H](O)[C@@H](O)c2ccc(O)cc2)NC(=O)[C@@H]2C[C@@H](O)CN2C(=O)[C@H]([C@@H](C)O)NC1=O` [CAS alone, caspofungin]: the IC50 came out at 900 ± 50 nM in assay [1] (CAS alone, [HsLin06] 0 μM, n ≥ 3, read-out: BIC50 CAS); 720 ± 50 nM in assay [1] (setting [5]); 400 ± 80 nM in assay [2]. In addition, in assay [3], the MIC50 stood at 0.02 ± 0.01 µM.

As to `CN(C)CCOc1ccc(/C(=C(/CCCl)c2ccccc2)c2ccccc2)cc1` [toremifene citrate], the “fold reduction of the caspofungin BIC50” value in assay [4] is listed as “up to 20 fold”.
